Data published in patent US10202361B2, “Pyridazinones as herbicides” (E I DU PONT DE NEMOURS AND COMPANY, priority 2014, dated 2019).
Like-named read-outs stand apart in the source and are kept apart here.

Legend:
Type in all cases: in vivo
[1] = tested on: barnyardgrass (Echinochloa crus-galli); assay: Test C pre-/postemergence greenhouse herbicide test; details: Barnyardgrass
How it was run: (§1)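 Greenhouse pre- and postemergence screen: compounds in a non-phytotoxic solvent mix plus surfactant were applied to soil/sand-sown seeds or to 1- to 4-leaf plants. Visual rating 13–15 d later, 0 (no effect) to 100 (complete control).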

[2] = tested on: blackgrass (Alopecurus myosuroides); assay: as above; details: Alopecurus myosuroides, Blackgrass, read-out: Plant response rating; for pest or weed control at 31 g/ha: 31 g ai/ha; for pest or weed control at 62 g/ha: 62 g ai/ha; for pest or weed control at 125 g/ha: 125 g ai/ha; for pest or weed control at 250 g/ha: 250 g ai/ha
How it was run: as §1

[3] = tested on: crabgrass, Large (large crabgrass, Digitaria sanguinalis); assay: as above; details: Digitaria sanguinalis, Crabgrass, Large, read-out: Plant response rating; for pest or weed control at 31 g/ha: 31 g ai/ha; for pest or weed control at 62 g/ha: 62 g ai/ha; for pest or weed control at 125 g/ha: 125 g ai/ha; for pest or weed control at 250 g/ha: 250 g ai/ha
How it was run: as §1

[4] = tested on: galium (catchweed bedstraw, Galium aparine); assay: as above; details: Galium, read-out: Plant response rating; for pest or weed control at 31 g/ha: 31 g ai/ha; for pest or weed control at 62 g/ha: 62 g ai/ha; for pest or weed control at 125 g/ha: 125 g ai/ha; for pest or weed control at 250 g/ha: 250 g ai/ha
How it was run: as §1

kochia (Kochia scoparia) = assay: as above; details: Postemergence
How it was run: as §1

[5] = tested on: morningglory (Ipomoea coccinea); assay: as above; details: Morningglory
How it was run: as §1

[6] = tested on: oat, wild (wild oat, Avena fatua); assay: as above; details: Postemergence
How it was run: as §1

[7] = tested on: ragweed (common ragweed, Ambrosia elatior); assay: as above; details: Ambrosia artemisiifolia, Ragweed, read-out: Plant response rating; for pest or weed control at 31 g/ha: 31 g ai/ha; for pest or weed control at 62 g/ha: 62 g ai/ha; for pest or weed control at 125 g/ha: 125 g ai/ha; for pest or weed control at 250 g/ha: 250 g ai/ha
How it was run: as §1

[8] = tested on: ryegrass, Italian (Italian ryegrass, Lolium multiflorum); assay: as above; details: Lolium multiflorum, Ryegrass, Italian, read-out: Plant response rating; for pest or weed control at 31 g/ha: 31 g ai/ha; for pest or weed control at 62 g/ha: 62 g ai/ha; for pest or weed control at 125 g/ha: 125 g ai/ha; for pest or weed control at 250 g/ha: 250 g ai/ha
How it was run: as §1

[9] = tested on: waterhemp (common waterhemp, Amaranthus rudis); assay: as above; details: Waterhemp
How it was run: as §1

[10] = tested on: wheat (winter wheat, Triticum aestivum); assay: as above; details: Triticum aestivum, Wheat, read-out: Plant response rating; for plant injury at 62 g/ha: 62 g ai/ha; for plant injury at 125 g/ha: 125 g ai/ha; for plant injury at 250 g/ha: 250 g ai/ha
How it was run: as §1

[11] = tested on: poinsettia, wild (wild poinsettia, Euphorbia heterophylla); assay: Test E pre-/postemergence greenhouse herbicide test; details: scale 0 to 100
[12] = tested on: goosegrass (Eleusine indica); assay: as above; details: Preemergence, scale 0 to 100

SMILES: COc1cc(=O)n(-c2ccc(C(F)(F)F)cc2)nc1Cc1ccnc(C(F)(F)F)c1 [Compound 16, 5-methoxy-2-[4-(trifluoromethyl)phenyl]-6-[[2-(trifluoromethyl)-4-pyridinyl]methyl]-3(2H)-pyridazinone]
- Plant response rating ([1]; Postemergence, 31 g ai/ha): 10
- Plant response rating ([1]; Postemergence, 62 g ai/ha): 10
- Plant response rating ([1]; Postemergence, 125 g ai/ha): 25
- Plant response rating ([1]; Postemergence, 250 g ai/ha): 35
- Plant response rating ([1]; Preemergence, 31 g ai/ha): 75
- Plant response rating ([1]; Preemergence, 62 g ai/ha): 80
- Plant response rating ([1]; Preemergence, 125 g ai/ha): 95
- Plant response rating ([1]; Preemergence, 250 g ai/ha): 100
- pest or weed control at 31 g/ha ([2]; post-emergence, Postemergence): 5%
- pest or weed control at 62 g/ha ([2]; post-emergence, Postemergence): 5%
- pest or weed control at 125 g/ha ([2]; post-emergence, Postemergence): 5%
- pest or weed control at 250 g/ha ([2]; post-emergence, Postemergence): 10%
- pest or weed control at 31 g/ha ([2]; pre-emergence, Preemergence): 40%
- pest or weed control at 62 g/ha ([2]; pre-emergence, Preemergence): 50%
- pest or weed control at 125 g/ha ([2]; pre-emergence, Preemergence): 60%
- pest or weed control at 250 g/ha ([2]; pre-emergence, Preemergence): 90%
- pest or weed control at 31 g/ha ([3]; post-emergence, Postemergence): 10%
- pest or weed control at 62 g/ha ([3]; post-emergence, Postemergence): 25%
- pest or weed control at 125 g/ha ([3]; post-emergence, Postemergence): 30%
- pest or weed control at 250 g/ha ([3]; post-emergence, Postemergence): 35%
- pest or weed control at 31 g/ha ([3]; pre-emergence, Preemergence): 98%
- pest or weed control at 62 g/ha ([3]; pre-emergence, Preemergence): 98%
- pest or weed control at 125 g/ha ([3]; pre-emergence, Preemergence): 100%
- pest or weed control at 250 g/ha ([3]; pre-emergence, Preemergence): 100%
- pest or weed control at 31 g/ha ([4]; post-emergence, Postemergence): 80%
- pest or weed control at 62 g/ha ([4]; post-emergence, Postemergence): 80%
- pest or weed control at 125 g/ha ([4]; post-emergence, Postemergence): 90%
- pest or weed control at 250 g/ha ([4]; post-emergence, Postemergence): 90%
- pest or weed control at 31 g/ha ([4]; pre-emergence, Preemergence): 70%
- pest or weed control at 62 g/ha ([4]; pre-emergence, Preemergence): 98%
- pest or weed control at 125 g/ha ([4]; pre-emergence, Preemergence): 100%
- pest or weed control at 250 g/ha ([4]; pre-emergence, Preemergence): 100%
- Plant response rating (kochia (Kochia scoparia); 31 g ai/ha): 90
- Plant response rating (kochia (Kochia scoparia); 62 g ai/ha): 90
- Plant response rating (kochia (Kochia scoparia); 125 g ai/ha): 90
- Plant response rating (kochia (Kochia scoparia); 250 g ai/ha): 90
- Plant response rating ([5]; Postemergence, 31 g ai/ha): 50
- Plant response rating ([5]; Postemergence, 62 g ai/ha): 70
- Plant response rating ([5]; Postemergence, 125 g ai/ha): 98
- Plant response rating ([5]; Postemergence, 250 g ai/ha): 98
- Plant response rating ([5]; Preemergence, 31 g ai/ha): 45
- Plant response rating ([5]; Preemergence, 62 g ai/ha): 95
- Plant response rating ([5]; Preemergence, 125 g ai/ha): 100
- Plant response rating ([5]; Preemergence, 250 g ai/ha): 100
- Plant response rating ([6]; 31 g ai/ha): 15
- Plant response rating ([6]; 62 g ai/ha): 30
- Plant response rating ([6]; 125 g ai/ha): 40
- Plant response rating ([6]; 250 g ai/ha): 60
- pest or weed control at 31 g/ha ([7]; post-emergence, Postemergence): 15%
- pest or weed control at 62 g/ha ([7]; post-emergence, Postemergence): 25%
- pest or weed control at 125 g/ha ([7]; post-emergence, Postemergence): 60%
- pest or weed control at 250 g/ha ([7]; post-emergence, Postemergence): 60%
- pest or weed control at 31 g/ha ([7]; pre-emergence, Preemergence): 20%
- pest or weed control at 62 g/ha ([7]; pre-emergence, Preemergence): 65%
- pest or weed control at 125 g/ha ([7]; pre-emergence, Preemergence): 65%
- pest or weed control at 250 g/ha ([7]; pre-emergence, Preemergence): 100%
- pest or weed control at 31 g/ha ([8]; post-emergence, Postemergence): 5%
- pest or weed control at 62 g/ha ([8]; post-emergence, Postemergence): 5%
- pest or weed control at 125 g/ha ([8]; post-emergence, Postemergence): 15%
- pest or weed control at 250 g/ha ([8]; post-emergence, Postemergence): 35%
- pest or weed control at 31 g/ha ([8]; pre-emergence, Preemergence): 5%
- pest or weed control at 62 g/ha ([8]; pre-emergence, Preemergence): 30%
- pest or weed control at 125 g/ha ([8]; pre-emergence, Preemergence): 85%
- pest or weed control at 250 g/ha ([8]; pre-emergence, Preemergence): 90%
- Plant response rating ([9]; Postemergence, 31 g ai/ha): 80
- Plant response rating ([9]; Postemergence, 62 g ai/ha): 90
- Plant response rating ([9]; Postemergence, 125 g ai/ha): 95
- Plant response rating ([9]; Postemergence, 250 g ai/ha): 98
- Plant response rating ([9]; Preemergence, 62 g ai/ha): 100
- Plant response rating ([9]; Preemergence, 125 g ai/ha): 100
- Plant response rating ([9]; Preemergence, 250 g ai/ha): 100
- plant injury at 31 g/ha ([10]; post-emergence, Postemergence, 31 g ai/ha): 5%
- plant injury at 62 g/ha ([10]; post-emergence, Postemergence): 5%
- plant injury at 125 g/ha ([10]; post-emergence, Postemergence): 10%
- plant injury at 250 g/ha ([10]; post-emergence, Postemergence): 10%
- plant injury at 62 g/ha ([10]; pre-emergence, Preemergence): 25%
- plant injury at 125 g/ha ([10]; pre-emergence, Preemergence): 45%
- plant injury at 250 g/ha ([10]; pre-emergence, Preemergence): 50%
- Plant response rating: Poinsettia, Wild ([11]; Postemergence, 62 g ai/ha): 60
- Plant response rating: Poinsettia, Wild ([11]; Postemergence, 125 g ai/ha): 70
- Plant response rating: Poinsettia, Wild ([11]; Postemergence, 250 g ai/ha): 75
- Plant response rating: Poinsettia, Wild ([11]; Preemergence, 62 g ai/ha): 35
- Plant response rating: Poinsettia, Wild ([11]; Preemergence, 125 g ai/ha): 35
- Plant response rating: Poinsettia, Wild ([11]; Preemergence, 250 g ai/ha): 65
- Plant response rating: Goosegrass ([12]; 62 g ai/ha): 5
- Plant response rating: Goosegrass ([12]; 125 g ai/ha): 20
- Plant response rating: Goosegrass ([12]; 250 g ai/ha): 50
